Assays:
HDAC5 = HDAC5 (Homo sapiens (Human), UniProt Q9UQL6); conditions: read-out: HDAC5 IC50
HDAC1 = HDAC1 (Homo sapiens (Human), UniProt Q13547); conditions: read-out: HDAC1 IC50
HDAC8 = HDAC8 (Homo sapiens (Human), UniProt Q9BY41); conditions: read-out: HDAC8 IC50
Sequence of HDAC8 (Q9BY41 whole entry): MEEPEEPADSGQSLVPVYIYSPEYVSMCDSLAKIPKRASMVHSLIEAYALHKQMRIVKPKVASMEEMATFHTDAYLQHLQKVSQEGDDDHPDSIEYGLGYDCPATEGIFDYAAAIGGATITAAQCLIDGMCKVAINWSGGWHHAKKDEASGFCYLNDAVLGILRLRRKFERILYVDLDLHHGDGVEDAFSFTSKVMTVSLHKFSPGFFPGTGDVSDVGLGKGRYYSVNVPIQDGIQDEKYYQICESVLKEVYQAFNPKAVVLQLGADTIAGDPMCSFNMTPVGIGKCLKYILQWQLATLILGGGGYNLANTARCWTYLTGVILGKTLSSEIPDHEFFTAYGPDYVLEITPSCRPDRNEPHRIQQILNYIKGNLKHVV

Sequence of HDAC1 (Q13547 whole entry): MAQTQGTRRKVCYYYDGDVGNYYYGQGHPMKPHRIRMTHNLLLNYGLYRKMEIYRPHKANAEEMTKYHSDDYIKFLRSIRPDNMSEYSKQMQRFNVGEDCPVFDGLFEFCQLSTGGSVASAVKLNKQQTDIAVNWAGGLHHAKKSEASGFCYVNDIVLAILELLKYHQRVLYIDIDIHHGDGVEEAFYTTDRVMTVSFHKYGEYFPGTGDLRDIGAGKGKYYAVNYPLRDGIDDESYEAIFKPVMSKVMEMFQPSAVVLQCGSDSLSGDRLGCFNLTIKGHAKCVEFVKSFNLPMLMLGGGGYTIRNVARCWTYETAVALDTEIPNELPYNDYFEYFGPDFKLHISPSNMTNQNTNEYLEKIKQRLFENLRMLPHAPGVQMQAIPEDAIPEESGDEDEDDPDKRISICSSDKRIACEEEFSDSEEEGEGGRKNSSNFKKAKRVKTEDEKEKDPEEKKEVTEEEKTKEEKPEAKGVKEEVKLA
Sequence of HDAC5 (Q9UQL6 656-1122): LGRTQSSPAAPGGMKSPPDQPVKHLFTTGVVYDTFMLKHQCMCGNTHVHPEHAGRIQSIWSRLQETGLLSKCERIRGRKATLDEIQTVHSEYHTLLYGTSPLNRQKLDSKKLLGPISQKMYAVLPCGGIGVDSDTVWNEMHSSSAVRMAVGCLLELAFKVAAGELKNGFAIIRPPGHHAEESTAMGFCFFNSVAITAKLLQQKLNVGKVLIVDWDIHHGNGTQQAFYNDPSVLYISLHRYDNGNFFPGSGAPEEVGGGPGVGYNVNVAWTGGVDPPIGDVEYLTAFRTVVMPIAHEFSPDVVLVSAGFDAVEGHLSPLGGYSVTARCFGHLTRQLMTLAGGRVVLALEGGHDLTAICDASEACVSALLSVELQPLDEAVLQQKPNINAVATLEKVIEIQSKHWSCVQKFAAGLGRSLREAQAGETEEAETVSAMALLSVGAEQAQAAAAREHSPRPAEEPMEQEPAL

Row | SMILES | IC50 (HDAC5) [nM] | IC50 (HDAC1) [nM] | IC50 (HDAC8) [nM]
1 | O=C1CCC(c2ccccc2)N1c1cc(F)c(-c2noc(C(F)(F)F)n2)cc1F (stereo not drawn) [Example 41, 1-(2,5-difluoro-4-(5-(trifluoromethyl)-1,2,4-oxadiazol-3-yl)phenyl)-5-phenylpyrrolidin-2-one] | 19 | 610 | 6000
2 | O=C1CCC(c2ccccc2)N1c1ccc(-c2noc(C(F)(F)F)n2)cc1F (stereo not drawn) [Example 42, 1-(2-fluoro-4-(5-(trifluoromethyl)-1,2,4-oxadiazol-3-yl)phenyl)-5-phenylpyrrolidin-2-one] | 27 | 530 | 1400
3 | O=C1CCC(c2ccccc2)N1c1ccc(-c2noc(C(F)(F)F)n2)c(F)c1 (stereo not drawn) [Example 43, 1-(3-fluoro-4-(5-(trifluoromethyl)-1,2,4-oxadiazol-3-yl)phenyl)-5-phenylpyrrolidin-2-one] | 74 | 1900 | 3600
4 | O=C(N1CCOCC1)N(Cc1ccc(-c2noc(C(F)(F)F)n2)cn1)c1cccc(C(F)(F)F)c1 [Example 49, N-((5-(5-(trifluoromethyl)-1,2,4-oxadiazol-3-yl)pyridin-2-yl)methyl)-N-(3-(trifluoromethyl)phenyl)morpholine-4-carboxamide] | 1900 | 1000 | 10000
5 | O=C(C1CCS(=O)(=O)CC1)N(Cc1ccc(-c2noc(C(F)(F)F)n2)cn1)c1cccc(F)c1 [Example 55, N-(3-fluorophenyl)-N-((5-(5-(trifluoromethyl)-1,2,4-oxadiazol-3-yl)pyridin-2-yl)methyl)tetrahydro-2H-thiopyran-4-carboxamide 1,1-dioxide] | 1100 | 250 | 2300
6 | O=C(C1CCOCC1)N(Cc1ccc(-c2noc(C(F)(F)F)n2)cn1)c1cccc(F)c1 [Example 60, N-(3-fluorophenyl)-N-((5-(5-(trifluoromethyl)-1,2,4-oxadiazol-3-yl)pyridin-2-yl)methyl)tetrahydro-2H-pyran-4-carboxamide] | 650 | 230 | 2100
7 | O=C(Cn1cncn1)N(Cc1ccc(-c2noc(C(F)(F)F)n2)cc1)c1cccc(C(F)(F)F)c1 [Example 68, 2-(1H-1,2,4-triazol-1-yl)-N-(4-(5-(trifluoromethyl)-1,2,4-oxadiazol-3-yl)benzyl)-N-(3-(trifluoromethyl)phenyl)acetamide] | 500 | 690 | 2000
8 | CCc1nnc([C@@H]2CCC(=O)N2c2cc(F)c(-c3noc(C(F)(F)F)n3)cc2F)o1 [Example 105, (S)-1-(2,5-difluoro-4-(5-(trifluoromethyl)-1,2,4-oxadiazol-3-yl)phenyl)-5-(5-ethyl-1,3,4-oxadiazol-2-yl)pyrrolidin-2-one] | 18 | 710 | 6600
9 | Cn1c([C@@H]2CCC(=O)N2c2ccc(-c3noc(C(F)(F)F)n3)cc2)nc2ccccc21 [Example 108, (S)-5-(1-methyl-1H-benzo[d]imidazol-2-yl)-1-(4-(5-(trifluoromethyl)-1,2,4-oxadiazol-3-yl)phenyl)pyrrolidin-2-one] | 120 | 2000 | 2900
10 | O=C1CCC(c2ccccc2Cl)N1c1ccc(-c2noc(C(F)(F)F)n2)cc1F (stereo not drawn) [Example 117, 5-(2-chlorophenyl)-1-(2-fluoro-4-(5-(trifluoromethyl)-1,2,4-oxadiazol-3-yl)phenyl)pyrrolidin-2-one] | 140 | 1800 | 3100
11 | Cc1noc([C@@H]2CCC(=O)N2c2ccc(-c3noc(C(F)(F)F)n3)cc2)n1 [Example 122, (S)-5-(3-methyl-1,2,4-oxadiazol-5-yl)-1-(4-(5-(trifluoromethyl)-1,2,4-oxadiazol-3-yl)phenyl)pyrrolidin-2-one] | 21 | 730 | 1400
12 | CC(C)(C)OC(=O)[C@@H]1CCC(=O)N1c1ccc(-c2noc(C(F)(F)F)n2)c(F)c1F [Example 124, tert-butyl (S)-1-(2,3-difluoro-4-(5-(trifluoromethyl)-1,2,4-oxadiazol-3-yl)phenyl)-5-oxopyrrolidine-2-carboxylate] | 17 | 1300 | 7400
13 | O=C1COC[C@@H](c2ccccc2)N1c1ccc(-c2noc(C(F)(F)F)n2)cn1 [Example 126, (R)-5-phenyl-4-(5-(5-(trifluoromethyl)-1,2,4-oxadiazol-3-yl)pyridin-2-yl)morpholin-3-one] | 190 | 1400 | 5000
14 | CC(C)(C)OC(=O)N1C[C@@H](c2cc(F)cc(F)c2)N(c2ccc(-c3noc(C(F)(F)F)n3)cn2)C(=O)C1C1CCOCC1 (stereo partly drawn) [Example 127, tert-butyl (5R)-5-(3,5-difluorophenyl)-3-oxo-2-(tetrahydro-2H-pyran-4-yl)-4-(5-(5-(trifluoromethyl)-1,2,4-oxadiazol-3-yl)pyridin-2-yl)piperazine-1-carboxylate] | 360 | 7300 | > 45000
15 | FC(F)(F)c1nc(-c2ccc(N3CCOCC3c3ccccc3Cl)nc2)no1 (stereo not drawn) [Example 130, 3-(2-chlorophenyl)-4-(5-(5-(trifluoromethyl)-1,2,4-oxadiazol-3-yl)pyridin-2-yl)morpholine] | 74 | 480 | 1500
16 | FC(F)(F)c1nc(-c2ccc(N3CCOCC3c3cccnc3)nc2)no1 (stereo not drawn) [Example 133, 3-(pyridin-3-yl)-4-(5-(5-(trifluoromethyl)-1,2,4-oxadiazol-3-yl)pyridin-2-yl)morpholine] | 31 | 160 | 350
17 | Cc1noc([C@@H]2CCCCN2c2ccc(-c3noc(C(F)(F)F)n3)cn2)n1 [Example 140, (S)-3-methyl-5-(1-(5-(5-(trifluoromethyl)-1,2,4-oxadiazol-3-yl)pyridin-2-yl)piperidin-2-yl)-1,2,4-oxadiazole] | 150 | 930 | 1000
18 | O=C1COC[C@@H](c2ccccc2)N1c1cc(F)c(-c2noc(C(F)(F)F)n2)cc1F [Example 160, (R)-4-(2,5-difluoro-4-(5-(trifluoromethyl)-1,2,4-oxadiazol-3-yl)phenyl)-5-phenylmorpholin-3-one] | 3 | 1300 | 12000
19 | FC(F)(F)c1nc(-c2ccnc(OCCc3cccc4cn[nH]c34)c2)no1 [Example 167] | 900 | 2500 | 480
20 | Fc1cc(COc2ccccc2)ccc1-c1noc(C(F)(F)F)n1 [Example 172, 3-(2-Fluoro-4-(phenoxymethyl)phenyl)-5-(trifluoromethyl)-1,2,4-oxadiazole] | 760 | 45000 | 45000
21 | O=C(C1CCS(=O)(=O)CC1)N(Cc1ccc(-c2noc(C(F)(F)F)n2)nn1)c1cccc(C(F)(F)F)c1 [Example 173, N-((6-(5-(Trifluoromethyl)-1,2,4-oxadiazol-3-yl)pyridazin-3-yl)methyl)-N′-(3-(trifluoromethyl)phenyl)tetrahydro-2H-thiopyran-4-carboxamide 1,1-dioxide] | 8300 | 1100 | 6300
22 | O=C(NC(Cc1ccc(-c2noc(C(F)(F)F)n2)cn1)c1cccc(C(F)(F)F)c1)C(F)(F)F (stereo not drawn) [Example 176, 2,2,2-Trifluoro-N-(2-(5-(5-(trifluoromethyl)-1,2,4-oxadiazol-3-yl)pyridin-2-yl)-1-(3-(trifluoromethyl)phenyl)ethyl)acetamide] | 320 | 1300 | 45000
23 | CC(=O)NC(Cc1ccc(-c2noc(C(F)(F)F)n2)cn1)c1cccc(C(F)(F)F)c1 (stereo not drawn) [Example 177, N-(2-(5-(5-(Trifluoromethyl)-1,2,4-oxadiazol-3-yl)pyridin-2-yl)-1-(3-(trifluoromethyl)phenyl)ethyl)acetamide] | 420 | 530 | 4500
24 | CS(=O)(=O)NC(Cc1ccc(-c2noc(C(F)(F)F)n2)cn1)c1cccc(C(F)(F)F)c1 (stereo not drawn) [Example 178, N-(2-(5-(5-(Trifluoromethyl)-1,2,4-oxadiazol-3-yl)pyridin-2-yl)-1-(3-(trifluoromethyl)phenyl)ethyl)methanesulfonamide] | 320 | 410 | 3700
25 | Cc1nc(Cl)cnc1COc1ccc(-c2noc(C(F)(F)F)n2)cn1 [Example 184, 3-(6-((5-Chloro-3-methylpyrazin-2-yl)methoxy)pyridin-3-yl)-5-(trifluoromethyl)-1,2,4-oxadiazole] | 1100 | 2300 | 2700
26 | Cc1cc(C)nc(COc2nccc(-c3noc(C(F)(F)F)n3)c2Cl)n1 [Example 186, 3-(3-Chloro-2-((4,6-dimethylpyrimidin-2-yl)methoxy)pyridin-4-yl)-5-(trifluoromethyl)-1,2,4-oxadiazole] | 850 | 8100 | 3900
27 | Fc1c(-c2noc(C(F)(F)F)n2)ccnc1OCc1nc(C2CC2)no1 [Example 187, 3-Cyclopropyl-5-(((3-fluoro-4-(5-(trifluoromethyl)-1,2,4-oxadiazol-3-yl)pyridin-2-yl)oxy)methyl)-1,2,4-oxadiazole] | 220 | 1500 | 1500
28 | O=C(COc1cc(-c2noc(C(F)(F)F)n2)ccn1)N1CCOCC1 [Example 190, 1-Morpholino-2-((4-(5-(trifluoromethyl)-1,2,4-oxadiazol-3-yl)pyridin-2-yl)oxy)ethan-1-one] | 550 | 2200 | 1100
29 | O=C(NCc1ccc(-c2noc(C(F)(F)F)n2)cc1)C1CCCC1 [Example 191, N-(4-(5-(Trifluoromethyl)-1,2,4-oxadiazol-3-yl)benzyl)cyclopentanecarboxamide] | 940 | 2200 | 2900
30 | CC(C)NC(=O)OCc1ccc(-c2noc(C(F)(F)F)n2)cn1 [Example 192, (5-(5-(Trifluoromethyl)-1,2,4-oxadiazol-3-yl)pyridin-2-yl)methyl isopropylcarbamate] | 640 | 660 | 1800

From patent publication US11066396B2 (priority 2016, dated 2021)
